Consider nine compounds from publication PMC9574862, “Designing Soluble PROTACs: Strategies and Preliminary Guidelines” (Journal of Medicinal Chemistry, 2022).

A word on the solubility: it is the dissolved amount per volume that the medium holds. High values mean a readily soluble substance, low ones a poorly soluble substance. Broadly, the chromatographic logD is lipophilicity estimated from chromatographic retention.

Molecules are shown by their SMILES.

A short description of series [1]: Thermodynamic solubility, shake-flask, 10 mM PBS (0.15 M KCl) pH 7, 25 °C, 1 h, HPLC-UV. As to conditions: pH 7, 25 °C; for solubility at 1 h: 25 °C, pH 7, aqueous buffer, thermodynamic from solid; for Classification (GSK guidelines): solubility class. How it is done:
Its measurement only requires an initial DMSO stock solution which is precipitated by the addition of an aqueous phase.[23],[24] Here, we measured thermodynamic solubility, often determined in late lead optimization, which efficiently considers the solubility value when the equilibrium with the stable phase or polymorph has been reached.
Solubility was determined in 10 mM PBS (0.15 M KCl) at pH 7, 25 °C. A 1–2 mg sample of each molecule was added to the same quantity (1–2 mL) of the mentioned buffer to obtain 1 mg/mL solutions in the vial. Samples were then submitted to 25 °C and magnetic stirring (500 rpm) for 1 h. After this period, solutions or suspensions were filtered through the 0.45 μm membrane pore and diluted with buffer, 10 mM PBS (0.15 M KCl). The amount of dissolved compound in each sample was then quantified, in duplicate, via HPLC using ultraviolet (UV) spectrometric detection.
Variable volumes of pure DMSO (0–100 μL) were added separately to small and defined (1 mg) quantities of each compound to obtain clear solutions. […] Afterward, 5% DMSO 10 mM PBS (0.15 M KCl) was added until the suspensions or precipitations were redissolved, to render clear solutions. As soon as solutions were obtained, they were used as mother solutions for the performance of 5–10 point calibration curves with serial buffer dilutions (1:1; v/v) 5% DMSO 10 mM PBS (0.15 M KCl). Calibration points were then measured via HPLC-UV.
The mobile phase consisted of a solution of acetonitrile (ACN) and 20 mM ammonium acetate buffer (AAB), pH 7, freshly prepared. A 10 μL volume of each sample (volume of injection) was injected at an isocratic 1 mL/min flow rate analyzed at 30 °C (oven temperature). Solubility determination of each compound required a specific HPLC method. Settings are collected in Table S11 (PROTACs) and Table S10 (building blocks).
Injections were performed in duplicate for each molecule’s calibration points. The retention time and area under the curve (AUC in absorbance units) were collected, and the average was calculated. The AUC average (y-axis) was plotted versus theoretical concentration (mg/mL; x-axis) to obtain a calibration curve for each molecule. Correlation equations and coefficients (R^2) were efficiently calculated for each compound (Table S12 for PROTACs and Table S10 for building blocks). Samples were then injected in duplicate, and the AUC averages and standard deviations were calculated. Finally, the absorbance averages were interpolated into the corresponding equations, extracting the final solubility values with their standard deviation, after dilution factor corrections.

The conditions of series [2]: log kw^IAM – clog kw^IAM. Here is the method: Since polarity is a molecular property often related to solubility,[13] experimental descriptors of polarity (Δ log kw^IAM and EPSA) were also determined. Introduced by Grumetto in 2012,[30] Δ log kw^IAM is the difference between the experimental log kw^IAM and the value expected for neutral analytes with a zero value of polar surface area (which depends on the experimental measurement of the n-octanol partition coefficient[31]). EPSA quantifies the polarity of a molecule using a supercritical fluid chromatographic (SFC) method.[32]

For series [3] the following is noted: pH 7.0, extrapolated to 0% acetonitrile. Here is the method: The logarithm of the capacity factor of an IAM column system, extrapolated at 100% water (log kw^IAM), is also an experimental descriptor of the lipophilicity of drugs since it mimics the interaction between the polar heads of the membrane phospholipids and the drug in solution.[29]
The mobile phase consisted of a solution of 20 mM ammonium acetate (pH 7.0) in a mixture with acetonitrile at various percentages (from 10 to 50%, v/v). Samples were dissolved in buffer/ACN and injected into the previously mentioned IAM column at a flow rate of 1.0 mL/min at 30 °C. Chromatographic retention data were determined in duplicate for the different mobile phase conditions. Data were recorded as log k′ (capacity factor k′ = [tR – t0]/t0), where tR and t0 are the retention times of the sample and a nonretained molecule (citric acid), respectively. Thus, log kw^IAM values were calculated by an extrapolation method of the experimental equation, at 0% acetonitrile. Moreover, five gold standard compounds (caffeine, carbamazepine, ketoprofen, theobromine, and toluene) were checked daily.

The next series in a line: physchem. The note with it: for chromatographic logD: pH 7. Here is the method: PROTAC experimental solubility was first correlated with lipophilicity descriptors (log P is implemented in the general solubility equation (GSE)[27]). As described by some of us,[16] BRlogD represents a validated,[28] very useful and straightforward chromatographic descriptor for the logarithm of the distribution coefficient in the n-octanol/water system (log D) of neutral and cationic bRo5 molecules.
The mobile phase consisted of an isocratic solution of 20 mM ammonium acetate (pH 7.0) and acetonitrile, 40–60%, respectively (v/v).[16] Samples were dissolved in buffer/ACN and injected into the XBridge column at a flow rate of 1.0 mL/min at 30 °C. Retention times were determined in duplicate, and the dead time, t0, was recorded as the baseline disturbance.

Series [4] in a line: pKa determination by potentiometry (SiriusT3). As to conditions: for Ionization state at pH 7: experimental. How it is done:
Solids were weighed with a Sartorius Entris224-1S Analytical (www.sartorius.com). pKa values were measured with a SiriusT3 instrument (Sirius Analytical Instruments) equipped with a reference pH electrode (Ag/AgCl double junction) and a turbidity detector. Ultrasonic cleaner, obtained from VWR Chemicals (www.vwr.com), and an IKA VORTEX 3 (www.ika.com) were used to avoid precipitation in the calibration points. Stirring and heating were provided by magnetic and heating plates C-MAG MS 7 and IKA ETS-D5, respectively (www.ika.com). Moreover, pH was measured with a Eutech pH Meter 2700 (www.fishersci.com). Analyses were carried out by high-performance liquid chromatography (HPLC; DIONEX Ultimate 3000, Thermo Scientific Inc.) provided with an RS diode array and Chromeleon 7.2.10 software (www.thermofisher.com). HPLC columns IAM.PC.DD2 (300 Å, 10 μm, 10 cm × 4.6 mm) from REGIS and XBridge Shield RP18 (130 Å, 5 μm, 5 cm × 4.6 mm) from Waters (www.waters.com) were used. Ergonomic high-performance single-channel variable volume pipettors, HPLC 1.5 mL vials, 0.1 mL microinsert, and PP 9 mm screw caps were obtained from VWR Signature. EPSA analyses were performed by supercritical fluid chromatography (SFC; JASCO SFC-4000, Jasco Europe srl), provided with a diode array and ChromNAV 2.04.00 software (www.jascoweb.com). The SFC column Chirex 3014 (S)-VAL and (R)-NEA (100 Å, 5 μm, 25 cm × 4.6 mm) from Phenomenex was used.
Acidic dissociation constants of pomalidomide, S,R,S-AHPC HCl, and S,S,S-AHPC 2HCl were measured potentiometrically. Titrations were performed to 0.15 M KCl sample solutions under a nitrogen atmosphere at 25 ± 1 °C. Moreover, standardized 0.5 M KOH and 0.5 M HCl were used as titration reagents (solutions were prepared from Titrisol (Merck) concentrated solutions).[45]

[5] abbreviates: Exp.LogS, PROTAC pairs and building blocks.
[6] abbreviates: Solubility average, thermodynamic, shake-flask, 1 h.

`COc1cc(C(=O)NC2CCN(C)CC2)ccc1Nc1ncc(C(F)(F)F)c(Oc2cccc3c2C(=O)CC3)n1` [BI-4464] showed a solubility at 1 h in series [1] (setting [5]) of 64.6 µM. Besides, the “ΔLog kw IAM” value in series [2] worked out at 1.23. Further, the “Log kw IAM” value in series [3] is given as 1.84. In “physchem”, this compound registered a chromatographic logD of 1.79.
With `COc1cc(-c2cn(C)c(=O)c3cc(C(=N)NC4CCS(=O)(=O)CC4)sc23)ccc1OCC(=O)NCCCCNC(=O)COc1cccc2c1C(=O)N(C1CCC(=O)NC1=O)C2=O` (stereo not drawn) [BRD9 degrader-1], the solubility at 1 h is 661 µM in series [1] (setting [6]); 661 µM in series [1] (Solubility log S, Table S-3); 600 µg/mL in series [1] (Solubility, Table S-3). In series [1], the “Classification (GSK guidelines)” value is on record as “High (> 200 μM) (High (> 200 μM))”. Besides, the “ΔLog kw IAM” value in series [2] is “high”.
Turning to `Cc1ncsc1-c1ccc(CNC(=O)[C@@H]2C[C@@H](O)CN2C(=O)[C@@H](NC(=O)COCCOCCOCCOCCOCCOCC(=O)N[C@H](C(=O)N2C[C@H](O)C[C@H]2C(=O)NCc2ccc(-c3scnc3C)cc2)C(C)(C)C)C(C)(C)C)cc1` [CM11], the solubility at 1 h is 631 µM in series [1] (setting [6]); 631 µM in series [1] (Solubility log S, Table S-3); 730 µg/mL in series [1] (Solubility, Table S-3). For the same compound, the “Classification (GSK guidelines)” value in series [1] is recorded as “High (> 200 μM) (High (> 200 μM))”. In addition, the “ΔLog kw IAM” value in series [2] is “high”.
Regarding `Cc1ncsc1-c1ccc(CNC(=O)[C@@H]2C[C@H](O)CN2C(=O)[C@@H](NC(=O)COCCOCCOCCOCCOCCOCC(=O)N[C@H](C(=O)N2C[C@@H](O)C[C@H]2C(=O)NCc2ccc(-c3scnc3C)cc2)C(C)(C)C)C(C)(C)C)cc1` [CMP98], the solubility at 1 h in series [1] (setting [6]) is 331 µM; in series [1] (Solubility log S, Table S-3), 331 µM; in series [1] (Solubility, Table S-3), 390 µg/mL. The “Classification (GSK guidelines)” value in series [1] is on record as “High (> 200 μM) (High (> 200 μM))”. Besides, the “ΔLog kw IAM” value in series [2] is listed as “high”.
For the compound `CC(=O)N1c2ccc(-c3ccc(C(=O)O)cc3)cc2[C@H](Nc2ccc(Cl)cc2)C[C@@H]1C` [I-BET726], the concentration in solution in series [1] (setting [5]) (solubility at 1 h) was 60.3 µM. Moreover, the “ΔLog kw IAM” value in series [2] turned out to be 2.64. Also, the “Log kw IAM” value in series [3] is 1.88. For the same compound, in the series “physchem”, the chromatographic logD was determined as 0.3.
With `Cc1sc2c(c1C)C(c1ccc(Cl)cc1)=N[C@@H](CC(=O)O)c1nnc(C)n1-2` [JQ1 carboxylic acid], the solubility at 1 h in series [1] (setting [5]) was > 2510 µM. Moreover, in series [2], the “ΔLog kw IAM” value is reported as 1.76. In addition, the “Log kw IAM” value in series [3] was 0.80. In addition, the chromatographic logD in the series “physchem” was determined as 0.08.
With `Nc1cccc2c1C(=O)N(C1CCC(=O)NC1=O)C2=O` (stereo not drawn) [Pomalidomide], the concentration in solution in series [1] (setting [5]) (solubility at 1 h) was 36.3 µM. The “Experimental pKa (2-12)” value in series [4] (0.15 M KCl, 25 °C, (b) = basic) is on record as “Not ionizable”. The “Ionization state at pH 7” value in series [4] was “Neutral”; in series [4] (listed as pomalidomide), “not ionized”. Also, in series [2], the “ΔLog kw IAM” value was found to be 0.64. Also, the “Log kw IAM” value in series [3] is recorded as 0.91. In addition, in the series “physchem” (pH 7.0), the BRlogD stood at 1.41.
The compound `Cc1ncsc1-c1ccc(CNC(=O)[C@@H]2C[C@@H](O)CN2C(=O)[C@@H](N)C(C)(C)C)cc1.Cl` [S,R,S-AHPC HCl] showed a solubility at 1 h in series [1] (setting [5]) of 2090 µM. For the same compound, the “ΔLog kw IAM” value in series [2] was 2.34. Also, the “Log kw IAM” value in series [3] was 1.83. For the same compound, in the series “physchem”, the chromatographic logD was 0.56.
In turn, `Cc1ncsc1-c1ccc(CNC(=O)[C@@H]2C[C@H](O)CN2C(=O)[C@@H](N)C(C)(C)C)cc1.Cl.Cl` [S,S,S-AHPC 2HCl] had a solubility at 1 h in series [1] (setting [5]) of 2040 µM. In addition, the “ΔLog kw IAM” value in series [2] amounted to 2.05. For the same compound, the “Log kw IAM” value in series [3] was 1.86. The compound further came in with a chromatographic logD in “physchem” of 0.91.
